Assay results as given in US20230013453A1, “RESVERATROL SKIN PREPARATION” (priority 2021, published 2023).

Assay: specification test of 98% trans-resveratrol (FIG. 5): solubility
Type: physicochemical
Settings: extracted or sieved 98% trans-resveratrol
Excerpt: It may be in powder form and either white or light yellow in color. […] It is also devoid of any significant amounts of metals, bacteria or other adulterants or additives.

solubility in ethanol: soluble in ethanol
SMILES: Oc1ccc(/C=C/c2cc(O)cc(O)c2)cc1 [trans-resveratrol]
